Results from US8772029B2, “Modulation of oocyte meiotic progression and oocyte activation” (Northwestern University, priority 2011, dated 2014).
Entries after “also recorded” stand apart in the source; their conditions may differ.

Assays:
MII eggs = conditions: literature (Kim et al 2011, Suzuki et al 2010); cited from earlier work
MAPK = assay: Myelin basic protein (MBP) kinase assay on single eggs (MAPK activity); assay type: cell-based, mouse; conditions: in vivo ovulated MII eggs, KSOM with 10 μM TPEN, 1 to 8 hours
Experimental: (§1) Histone H1 and myelin basic protein (MBP) dual kinase assays were performed as previously described (Svoboda et al., 2000). Dried gels were exposed to Kodak BIOMAX MR films for 12 to 72 hours at −80° C. using Kodak intensifying screens; films were developed, scanned, and analyzed using ImageJ software. Assays were performed on single oocytes, and densitometric analysis is expressed relative to levels in control eggs.

CCNB1 = assay: Western blot for CCNB1 in oocytes; assay type: cell-based, mouse; conditions: oocytes cultured with 10 μM TPEN during the MI-MII transition
Experimental: Western blotting was performed essentially as previously described (Bernhardt et al., 2010). Briefly, 15 to 50 cumulus-denuded oocytes were transferred in a minimal amount of medium to microcentrifuge tubes and immediately lysed in 8 μL of 1x SDSPAGE Sample Buffer (Laemmli, 1970). SDS-PAGE gels were run using the Invitrogen NuPAGE system and transferred to Immobilon-P PVDF membranes (Millipore, Billerica, MA). Blocking and antibody incubations were in 2% w/v ECL Advanced Blocking Reagent (Amersham) in TBS-T (20mM Tris, pH7.4, 137mM NaC1, 0.1% Tween20 v/v). Anti-CCNB1antibody was diluted 1:500, anti-FBXO43 was used at 1:1000 dilution, and anti-tubulin antibody was used at 1:10,000. HRP-conjugated secondary antibodies were diluted 1:10,000. Detection was performed using Amersham ECL Advanced detection reagent. BIOMAX MR films (Kodak, Rochester, NY) were exposed and developed, or an Alpha-Innotech (San Learndo, CA) MultiImage II system was used.

oocytes = conditions: literature (Kim et al 2010, Bernhardt et al 2011); cited from earlier work
MPF activity = assay: Histone H1 kinase assay on single oocytes/eggs (MPF activity); assay type: cell-based, mouse
Experimental: as §1

[1] = test system: zinc-insufficient oocytes; assay: Spindle phenotype scoring after IVM in TPEN with proteasome inhibitor MG132 added after 10 h; assay type: cell-based, mouse; conditions: TPEN 16 h without MG132; n=13
Experimental: For IVM studies, immature female CD1 mice (17 to 21 day old) were injected with 5IU equine chorionic gonadotropin (eCG) (Calbiochem, La Jolla, CA) in 100 μL sterile phosphate-buffered saline (PBS), intraperitoneally. After 44 to 48 hours, mice were anesthetized using isoflurane and euthanized by cervical dislocation. Dissected ovaries were placed in Leibovitz L-15 medium containing 1% FBS (L-15/FBS) and 0.2mM 3-isobutyl-1-methylxanthine (IBMX), and large antral follicles were punctured using 28 gauge needles to release cumulus oocyte complexes (COCs). COCs were washed through several drops of culture medium consisting of Minimum Essential Medium (MEM)-alpha with GLUTAMAX supplemented with 10% FBS, 1.5IU/mL human chorionic gonadotropin (hCG), and 5ng/mL epidermal growth factor and placed in culture medium with or without 10 μM N,N,N′,N′-tetrakis(2-pyridylmethyl) ethylenediamine (TPEN). In some experiments Z-Leu-Leu-Leu-al (MG132) was added to culture medium at 20 μM. COCs were cultured in drops of pre-equilibrated medium covered with embryo quality mineral oil at 37° C. in 5% CO2 with a humid environment. Ovulated MII eggs were collected from 4 to 6 week old mice primed with 5IU PMSG followed 48 h later by 5IU hCG. Oviducts were dissected into L-15/FBS, and eggs were removed and treated with 0.03% (w/v) hyaluronidase to remove cumulus cells. Eggs were washed and cultured in potassium simplex optimized medium (KSOM) (Millipore, Billerica, MA) covered with embryo quality mineral oil at 37° C. in 5% CO2.
Oocytes were denuded of cumulus cells and fixed in a microtubule stabilizing buffer (Ibanez et al., 2005) containing 2% formaldehyde and 1% Triton X-100 for 30 min at 37° C. Oocytes were washed and blocked in PBS containing 0.1M glycine, 3mg/mL BSA, 0.01% Tween 20, and 0.01% sodium azide for at least 1 h and were stored in blocking solution at 4° C. for up to 2 weeks. Oocytes were incubated with anti-tubulin antibody (1:100) for 1 h at 37C. followed by three washes in blocking solution. They were then incubated for 1 h in AlexaFluor-488 conjugated anti-mouse secondary antibody (5μg/mL) and rhodamine-phalloidin (2U/mL), washed three additional times, and mounted in VECTASHIELD with DAPI. Microscopy was performed using a Leica SP5 inverted laser-scanning confocal microscope with a 63x oil immersion objective (Leica Microsystems, Heidelberg, Germany). Images were processed using LAS AF software (Leica Microsystems).
It has been previously shown that zinc-insufficient oocytes fail to increase MPF activity following the first meiotic division and have low CCNB1 protein levels (Bernhardt et al., 2010). In order to determine whether this decrease in CCNB1 is the major cause of the observed meiotic arrest phenotype, it was tested whether increasing CCNB1 would be sufficient to rescue MII entry in zinc-insufficient oocytes by inhibiting the proteasome at the end of the MI-MII transition, thereby halting CCNB1 degradation. Experimental oocytes were cultured for 10 hours in TPEN-containing medium and were then transferred into medium containing TPEN as well as the proteasome inhibitor Z-Leu-Leu-Leu-al (MG132) at 20 μM concentration. MG132 was added after first polar body extrusion, because earlier addition would result in MI arrest due to failure to degrade APC/C targets that prevent cell division. Oocytes were cultured for an additional 6 h in the presence of MG132 to allow time for CCNB1 reaccumulation, for a total 16 h IVM culture period. Proteasome inhibition led to a partial rescue of the zinc insufficiency phenotype. 69% of treated oocytes formed spindle-like structures, and none were in telophase I arrest, despite being cultured in the presence of TPEN for the entire culture period (FIG. 2, A; Table 2).
A majority of zinc-insufficient oocytes treated with MG132 following the first meiotic division transition progress beyond telophase-I arrest and form MII spindle-like structures. […]

MAPK activity (MBP kinase) in MII eggs (MAPK): did not change appreciably
MPF activity (histone H1 kinase) in MII eggs (MPF activity; in vivo ovulated MII eggs, KSOM with 10 μM TPEN, 1 to 8 hours, seen as soon as 1 hour): decline
MPF activity (histone H1 kinase) (MPF activity; oocytes cultured with 10 μM TPEN during the MI-MII transition (7.5 h control, 6.5 h TPEN)): low
SMILES: c1ccc(CN(CCN(Cc2ccccn2)Cc2ccccn2)Cc2ccccn2)nc1 [TPEN, N,N,N′,N′-tetrakis(2-pyridylmethyl)ethylenediamine]
activation of MII-arrested eggs by zinc sequestration with TPEN (MII eggs): causes egg activation and resumption of cell cycle; also recorded: induce egg activation and embryo development
CCNB1 protein levels (CCNB1): low
meiotic arrest on TPEN treatment during the MI-MII transition (oocytes): causes meiotic arrest at telophase-I
MII (aligned metaphase plate) [1]: 0%
other spindle phenotype [1]: 23%
persisting midbody or chromatin mass [1]: 0%
spindle with chr. scattered along length [1]: 0%
spindle with ≦3 chr. out of place [1]: 0%
